Data taken from patent US20110009616A1, “AGENT FOR PREVENTING ARTERIOSCLEROSIS” (priority 2006, published 2011).

Tests used:
bLOX-1 [1] = molecular target: T1, bLOX-1 (Bos taurus, UniProt P79391); experiment: Plate assay: binding of oxidized LDL to recombinant bLOX-1 (Test Example 1); set-up: 6xHis (N); made in house; host or cells: E. coli; species or system bovine; details: final concentration of 16 μM, FIG. 1; for binding rate of oxidized LDL to bLOX-1 (inhibition of binding): control without compounds = 100
Procedure: A LOX-1 antagonist activity of the agent for preventing arteriosclerosis obtained in the above-mentioned Example was evaluated on a LOX-1 binding inhibition rate to oxidized LDL using a recombinant LOX-1 protein obtained from E. coli.
As for the recombinant LOX-1, in cDNA of LOX-1 derived from bovine (bLOX-1) or derived from human (hLOX-1), a sequence to the C-terminal removing a transmembrane region was inserted into a pQE30 vector having a 6-histidine tag sequence (6×His) at the N-terminal (manufactured by Qiagen) so as to have a sequence aligned to a translation frame. The vector was transformed into E. coli able to be controlled by T5 promoter and the expression of each LOX-1 was induced under induction of 1 m M of isopropyl-1-thio-β-D-[…] (IPTG). After the induction of each expression at 37° C. for 3 hours, since the recombinant LOX-1 was obtained from an insoluble fraction, E. coli was lysed in a buffer containing 6 M guanidine hydrochloride and purified by affinity column chromatography using a Ni-NTA agarose column (manufactured by Qiagen) as the marker of 6×His (solvent: phosphoric acid buffer). Furthermore, each of the elution fractions containing LOX-1 was dialyzed in a 20 mM tris buffer (pH 9.0) and a 8M urea containing buffer, applied to a HiTrap Q column, an anion exchanger, (manufactured by Amersham), and eluted and purified with a linear concentration gradient of NaCl. Each of the fractions containing LOX-1 obtained above was reduced in a buffer containing excess amount of DTT (dithiothreitol), and then intramolecular S-S bonds were unwinded by a redox system using a mixture of oxidized […] low molecular thiol compounds. Each LOX-1 obtained above has a binding ability to the oxidized LDL and will be used as a LOX-1 standard for the following plate assays.
The plate assay was carried out using MaxiSorp Immuno Plate (96-well type, manufactured by NUNC). Each LOX-1 purified above was prepared with a PBS buffer so as to be 5 μg/mL, and 100 μL of the solution was applied to each well. After leaving at 4° C. overnight, each well was washed with 400 μL of a PBS buffer twice (400 μL×2) and 300 μL of a PBS buffer containing 25% BlockAce (manufactured by Dainippon Sumitomo Pharma Co., Ltd.) was applied to each well. After leaving at 4° C. overnight, each well was washed with 400 μL of a PBS buffer twice (400 μL×2), a solution of ethyl pheophorbide a was prepared with a PBS buffer containing 1% bovine serum albumin (BSA) so as to have an appropriate dilution rate, and 100 μL of the solution was applied to each well. After leaving at 4° C. overnight, each well was washed with 400 μL of a PBS buffer three times (400 μL×3), a solution of oxidized LDL was prepared with a PBS buffer so as to be 5 μg/mL, and 100 μL of the solution was applied to eachr well. After leaving at 4° C. overnight, each well was washed with 400 μL of a PBS buffer three times (400 μL×3), a horseradish peroxidase-conjugated anti-apolipoprotein B antibody (manufactured by The Binding Site) was diluted 1000 times with a PBS buffer, and 100 μL of the solution was applied to each well. After leaving at room temperature for 2 hours, each well was washed with 400 μL of a PBS buffer five times (400 μL×5), and 100 μL of a 3,3′,5,5′-tetramethylbenzidine (TMB) peroxidase-enzyme immunoassay (EIA)-substrate-kit reagent (manufactured by Bio-Rad) was applied to each well. After an appropriate reaction period, 50 μL of 2M H2SO4 was applied to each well to stop the reaction. Finally, a LOX-1 antagonist activity (an oxidized LDL binding inhibition rate to LOX-1) was determined by detection at 450 nm.
Target sequence in this assay (P79391 57-270 limits assumed): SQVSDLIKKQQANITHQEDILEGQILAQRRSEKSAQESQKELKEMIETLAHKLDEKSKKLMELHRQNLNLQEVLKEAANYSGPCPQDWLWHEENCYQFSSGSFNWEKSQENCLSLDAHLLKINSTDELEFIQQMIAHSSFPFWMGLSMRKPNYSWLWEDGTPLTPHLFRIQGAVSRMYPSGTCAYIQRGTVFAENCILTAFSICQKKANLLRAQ

[2] = system: living cells (mitochondria activity); experiment: Cytotoxicity, number of living cells by Cell counting Kit-8 (WST-8) (Example 5); assay type: cell-based; details: 7 hours with compound; concentrations where the inhibitory activities were effective; results not shown
Procedure: In order to examine cytotoxicities of the compounds in Examples 1 to 4 and Comparative Examples 1 to 9, the number of living cells was measured as follows. As a method for measuring the number of living cells, a MTT method using a reduction of MTT (3-(4,5-dimethyl-2-thiazolyl)-2,5-diphenyltetrazolium bromide) to formazan (formed as a poorly soluble precipitate) by dehydrogenase in mitochondria, and the like, are generally used. Thus, “Cell counting Kit-8” (manufactured by Dojindo Laboratories, WST-8 which forms a water soluble formazan is used instead of MTT), a modified method of the MTT method, was used for the measurement of the number of living cells. Specifically, 100 μL of cells were seeded into inner 60 wells of a 96-well plate (manufactured by Falcon) so as to be 3.0×10^4 cells/mL, respectively (in order to avoid temperature variation, 100 μL of a culture medium was only added into the outer 36 wells). After cultivating for 2 days (37° C.), 50 μL of the culture supernatant was removed and 50 μL of a new culture medium containing each compound with an appropriate dilution rate was added. After adding the new culture medium containing each compound, the cells were cultivated for 7 hours. After 7 hours, each well was washed with 100 μL of the culture medium without the compounds three times, and then 3 μL of a culture medium containing “WST-8”, a “Cell counting Kit-8” solution, was added to each well. After cultivating for 1 hour, absorbance at 450 nm of each culture medium was measured and converted to the number of living cells. It is considered that three washing operations in the process omit the effect of the compounds in the external solution on the absorbance.

bLOX-1 [3] = molecular target: T1, bLOX-1; experiment: Fluorescently labeled oxidized LDL uptake into CHO cells stably expressing bLOX-1 (Examples 6, 7); assay type: cell-based, bovine; set-up: By a positive screening using a full-length bLOX cDNA; expressed in transfected cells; details: Example 7; FIG. 6
Target sequence in this assay (P79391 whole entry): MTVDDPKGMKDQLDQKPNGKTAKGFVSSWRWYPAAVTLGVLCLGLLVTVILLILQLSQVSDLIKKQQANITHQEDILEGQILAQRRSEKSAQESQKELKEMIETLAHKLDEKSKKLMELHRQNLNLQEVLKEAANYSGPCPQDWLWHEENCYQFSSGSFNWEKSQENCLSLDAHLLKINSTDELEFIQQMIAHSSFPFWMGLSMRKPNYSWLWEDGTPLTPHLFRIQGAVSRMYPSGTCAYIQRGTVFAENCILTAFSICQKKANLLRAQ

| binding rate of oxidized LDL to bLOX-1 (inhibition of binding) (bLOX-1 [1]) | Compound | inhibition activity on binding of oxidized LDL to bLOX-1 (ranking among actives) (bLOX-1 [1]) | cytotoxicity (number of living cells) [2] | inhibition of DiI-OxLDL uptake in CHO cells expressing bLOX, compared with inhibition of CTB uptake (bLOX-1 [3]) |
| --- | --- | --- | --- | --- |
| – | C[C@@H]1[C@H](O)[C@@H](C)/C=C/C=C/CC/C=C/C=C/C=C/C=C/C(O[C@H]2O[C@H](C)[C@@H](O)[C@H](N)[C@@H]2O)CC2O[C@](O)(CC(O)C(O)CCC(O)CC(O)CC(O)CC(=O)O[C@H]1C)CC(O)C2C(=O)O (stereo partly drawn) [nystatin, Nystatin] | – | – | nearly equal to that of CTB |
| inhibit the binding significantly | hematoporphyrin | high inhibition activities | did not show the cytotoxicity | – |
| inhibit the binding significantly | uroporphyrin III | – | did not show the cytotoxicity | – |

| Compound | binding rate of oxidized LDL to bLOX-1 (inhibition of binding) (bLOX-1 [1]) | inhibition activity on binding of oxidized LDL to bLOX-1 (ranking among actives) (bLOX-1 [1]) | cytotoxicity (number of living cells) [2] | inhibition of DiI-OxLDL uptake in CHO cells expressing bLOX, compared with inhibition of CTB uptake (bLOX-1 [3]) |
| --- | --- | --- | --- | --- |
| C=CC1=C(C)c2cc3[nH]c(c4c5nc(cc6[nH]c(cc1n2)c(C)c6CC)C(C)=C5C(=O)C4C(=O)OC)C(CCC(=O)OCC)C3C (stereo not drawn) [ethyl pheophorbide a] | inhibit the binding significantly | high inhibition activities | did not show the cytotoxicity | – |
